Assay type in all cases: cell-based, human
One test has as its system Rac1. In words: Rac1 GTPase pulldown assay (Rac1-GTP level). Particulars: wt-, Ser179Ala and Ser179Glu syndecan-4 cell lines, Gö6976. How it is done:
Rac1 activity was characterised by applying RAC-activation kit purchased from Millipore (Upstate) and it was used according to the manufacturer's prescription. Briefly, p21-binding domain of PAK-1 was fused to agarose beads, which specifically binds to and precipitates Rac-GTP and Cdc42-GTP from cell lysates. Cells were harvested at 70% confluency of 25 ml flasks. The wild type Syndecan-4, Ser179Ala and Ser179Glu cells were treated for 60 minutes with 1 μM PMA (Sigma-Aldrich), or 500 nM rottlerin (Sigma-Aldrich), or 10 nM Gö6976 (Biosource, Camarillo, Calif., USA). The active Rac1 was detected by Western blotting using mouse anti-Rac1 antibody (Upstate). To test whether GST-Pak1-Rac/Cdc42-binding domain could pull syndecan-4 down, the blot was probed with rabbit polyclonal anti-syndecan-4 or mouse monoclonal anti-GFP antibody.

The next test concerns MCF-7 cells. In words: Cell migration assay (time-lapse) on fibronectin. Particulars: nt-MCF-7 (non-transfected) cells, PMA stimulation, solitary cell migration. How it is done:
The MCF-7 breast adenocarcinoma cells were obtained from ATCC, cultured in DMEM:F12 (Cambrex, Walkersville, Md., USA) supplemented with 10% fetal bovine serum (FBS) (Gibco, Bethesda, Md., USA), otherwise stated. The stably transfected cell lines were propagated in DMEM:F12 medium supplemented with 10% FBS and 200 μg/ml G418 (Cambrex, Walkersville, Md., USA). The cell lines were seeded onto glass coverslips or plastic dishes coated for 2 h with 10 μg/ml fibronectin (Sigma-Aldrich, St. Louis, Mo., USA). Scratch-wound assays were performed on stable transfected Syndecan-4 wild, Ser179Ala and Ser179Glu cells at 80% confluency. The cultures were scratched with a sterile P10 pipette tip 3-4 times in parallel lines. Images were taken 12, 24, 36 and 48 h following wounding.
In the cell migration assay 60% confluent MCF7 cells or the stably transfected lines were stimulated by 1 μM phorbol-12-myristate-13-acetate (PMA; from Sigma-Aldrich St. Louis, Mo., USA), otherwise stated. The images were taken using 10×, 20×0.3 objective at 3-min intervals for 2 h using inverted microscope (Leica) and organized into time-lapse movies in Adobe ImageReady® v. 8.
Results of the previous scratch-wound assay gave a hint that the Ser179Glu cells gained a migratory phenotype. […]

The next test has as its system MCF7 cells. As to the kind of experiment: Neuronal differentiation under serum starvation. Particulars: 4-5 weeks, bIII-tubulin marker. As for the experimental part:
FIG. 8. Neuronal differentiation induced by short Syndecan-4 peptides. MCF7 cells were transfected with wild type syndecan-4 (A) and DEGEpC3 (B), respectively. […] Red: b3-tubulin staining. Blue: Hoechst nuclear staining (A). DEGEpC3: […] was joined to GFP.
Short peptides with the sequence […] (SEQ.ID.NO.: 3) and […] (SEQ.ID.NO.: 4) were tested under serum starvation.

Several values for one entry are separate records, joined by “and”; a condition that tells them apart may be missing. Equal values may be shown once.

As for `Cn1c2ccccc2c2c3c(c4c5ccccc5n(CCC#N)c4c21)C(=O)NC3` [Gö6976, reference compound], the “activated Rac1 level” value in the test on Rac1 is given as “reduced”. Consider `CCCCCCCCCCCCCC(=O)O[C@@H]1[C@@H](C)[C@@]2(O)[C@@H](C=C(CO)C[C@]3(O)C(=O)C(C)=C[C@@H]23)[C@@H]2C(C)(C)[C@]12OC(C)=O` [PMA, phorbol-12-myristate-13-acetate, reference compound], for which the migration velocity in the test with MCF-7 cells is 0.3±0.1 μm/min and 0.3 μm/min. For the compound MYRMKKKDEGEYDL [DEGEpC3], in the test with MCF7 cells, the neuronal differentiation phenotype result is “neuron-like phenotype”. Turning to “RMKKKDEGEYDLG (Syndecan-4 sequence) [SEQ.ID.NO.: 3]”, the neuronal differentiation phenotype result with MCF7 cells is recorded as “neuron-like phenotypes”. On the same count and under the same terms, the value for “RMKKKDEGDYDLG (Syndecan-4 sequence) [SEQ.ID.NO.: 4]” was “neuron-like phenotypes”.

The record behind these values is US20110124572A1, “SYNDECAN-4 IS A REGULATOR OF RAC1-GTP” (priority 2008, published 2011).
